From patent EP4786487A1, “PEPTIDE” (Peptidream Inc, priority 2023, dated 2025)
Starred links: 1 amine or outer side, 2 acyl side, 3 side chain; linkers in the order of their positions; H or OH if unused. Positions of bridges follow the written chain, without caps; N, C: chain ends. Non-standard residues stand in square brackets, D forms with d. Residues, ends and D or L forms follow the SMILES beside them. *: point of attachment. Phe(3-OCH2COOH) = N[C@@H](Cc1cccc(OCC(=O)O)c1)C(=O)O; X15 = O=C([C@H](Cc1ccc(-c2ccccn2)cc1)N[*:1])[*:2]; Phe(4-CONH2) = NC(=O)c1ccc(C[C@H](N)C(=O)O)cc1; Phe(4-COOH) = N[C@@H](Cc1ccc(C(=O)O)cc1)C(=O)O; X14 = CCc1cccc(C[C@@H](C(=O)[*:2])N(C)[*:1])c1; Trp(6-aza) = N[C@@H](Cc1c[nH]c2cnccc12)C(=O)O; Trp(7-aza) = N[C@@H](Cc1c[nH]c2ncccc12)C(=O)O; Tyr(Ph) = N[C@@H](Cc1ccc(Oc2ccccc2)cc1)C(=O)O; NMePhe(3-Me) = CN[C@@H](Cc1cccc(C)c1)C(=O)O; Bip = N[C@@H](Cc1ccc(-c2ccccc2)cc1)C(=O)O; Phe(3-OMe) = COc1cccc(C[C@H](N)C(=O)O)c1; Gly(N(CH2)3COOH) = O=C(O)CCCNCC(=O)O; NMe4Pal = CN[C@@H](Cc1ccncc1)C(=O)O; NMeY = CN[C@@H](Cc1ccc(O)cc1)C(=O)O; X1 = CCCCCCC[C@H](N[*:1])C(=O)[*:2]; NMeF = CN[C@@H](Cc1ccccc1)C(=O)O; 3Pal = N[C@@H](Cc1cccnc1)C(=O)O; Ahp(2) = CCCCC[C@H](N)C(=O)O; Carboxymethyl = O=C(O)C*; NMeA = CN[C@@H](C)C(=O)O; Sar = CNCC(=O)O

Key:
Myostatin = target: T1, Myostatin (Homo sapiens, UniProt O14793); test: HepG2 reporter gene assay, Evaluation Procedure (2): 2-concentrations assay, myostatin inhibition; type: cell-based; settings: Myostatin 10 ng/mL, HepG2; for inhibition at 0.03 µM: peptide 30nM, read-out: Myostatin Inhibition 30nM; for inhibition at 0.1 µM: peptide 100nM, read-out: Myostatin Inhibition 100nM
T1 construct: active myostatin (also called mature myostatin) is a homodimer consisting of two C-terminal growth factor domains; purchased R&D systems 788-G8/CF
T1 sequence (O14793 267-375): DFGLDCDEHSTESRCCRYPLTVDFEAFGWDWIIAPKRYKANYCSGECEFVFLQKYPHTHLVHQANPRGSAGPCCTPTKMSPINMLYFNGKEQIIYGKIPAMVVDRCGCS
Procedure, shortened: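 Myostatin inhibition was measured in a luciferase reporter assay using HepG2 cells transfected with a pGL3 vector containing 12 CAGA repeats upstream of luciferase. After 20 to 24 hours with 10 ng/mL myostatin, cells received One-Glo:PBS (1:1) at 100 µL/well, were shaken for 5 min, and 20 µL/well was moved to 384-well plates and read on an Envision 2104.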

GDF-11 = target: T2, GDF-11 (Homo sapiens, UniProt O95390); test: HepG2 reporter gene assay, Evaluation Procedure (2): 2-concentrations assay, GDF-11 inhibition; type: cell-based; settings: GDF-11 10 ng/mL; for inhibition at 0.03 µM: HepG2, peptide 30nM, read-out: GDF11 Inhibition 30nM; for inhibition at 0.1 µM: HepG2, peptide 100nM, read-out: GDF11 Inhibition 100nM
T2 construct: purchased R&D systems 1958-GD-G8/CF
T2 sequence (O95390 299-407): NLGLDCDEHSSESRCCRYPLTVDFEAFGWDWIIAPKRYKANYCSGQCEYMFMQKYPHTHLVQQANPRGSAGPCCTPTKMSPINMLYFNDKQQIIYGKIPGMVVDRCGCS
Procedure, shortened: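 HepG2 cells carrying the transfected pGL3(CAGA)12-luc reporter, a pGL3 vector with luciferase placed downstream of 12 CAGA repeats, were stimulated with GDF-11 at a final 10 ng/mL together with test peptide. Blank wells received no GDF-11 and no peptide. Plates were incubated 20 to 24 hours at 37°C with 5% CO2. Luminescence from One-Glo substrate was read to calculate percent inhibition.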

Row | inhibition at 0.03 µM (Myostatin) [%] | inhibition at 0.1 µM (Myostatin) [%] | inhibition at 0.03 µM (GDF-11) [%] | inhibition at 0.1 µM (GDF-11) [%] | SMILES
1 | 25 | 51 | 7 | 5 | CC[C@H](C)[C@@H]1NC(=O)[C@H](Cc2ccccc2)N(C)C(=O)[C@H](Cc2ccc(Oc3ccccc3)cc2)NC(=O)[C@H](Cc2ccc(-c3ccccn3)cc2)NC(=O)[C@H](C)NC(=O)CN(CCCC(=O)O)C(=O)CSC[C@H](C(=O)O)NC(=O)[C@H](Cc2ccccc2)N(C)C(=O)[C@H](C)N(C)C(=O)[C@H](CC(C)C)NC(=O)[C@H](Cc2ccccc2)N(C)C(=O)[C@H](CCCNC(=N)N)NC(=O)[C@H](Cc2ccc(OCC(=O)O)cc2)NC(=O)[C@H](Cc2ccccc2)NC(=O)CN(C)C1=O [Myostatin_99_v60] ({CH2CO}-[Gly(N(CH2)3COOH)]A[X15][Tyr(Ph)][NMeF]I[Sar]FY(Carboxymethyl)R[NMeF]L[NMeA][NMeF][dC]-OH; thioether N-15)
2 | 60 | 81 | 0 | 0 | CC[C@H](C)[C@@H]1NC(=O)[C@H](Cc2ccccc2)N(C)C(=O)[C@H](Cc2ccc(O)cc2)NC(=O)[C@H](Cc2ccc(-c3ccccc3)cc2)NC(=O)[C@H](C)NC(=O)CN(CCCC(=O)O)C(=O)CSC[C@H](C(=O)O)NC(=O)[C@H](Cc2ccccc2)N(C)C(=O)[C@H](C)N(C)C(=O)[C@H](CC(C)C)NC(=O)[C@H](Cc2ccccc2)N(C)C(=O)[C@H](CCCNC(=N)N)NC(=O)[C@H](Cc2ccc(C(N)=O)cc2)NC(=O)[C@H](Cc2ccc(C(=O)O)cc2)NC(=O)[C@H](C)N(C)C1=O [Myostatin_99_v102] ({CH2CO}-[Gly(N(CH2)3COOH)]A[Bip]Y[NMeF]I[NMeA][Phe(4-COOH)][Phe(4-CONH2)]R[NMeF]L[NMeA][NMeF][dC]-OH; thioether N-15)
3 | 35 | 70 | 0 | 0 | CCc1cccc(C[C@H]2C(=O)N[C@@H](C(=O)O)CSCC(=O)N(CCCC(=O)O)CC(=O)N[C@@H](C)C(=O)N[C@@H](Cc3ccc(-c4ccccc4)cc3)C(=O)N[C@@H](Cc3ccc(O)cc3)C(=O)N(C)[C@@H](Cc3ccc(O)cc3)C(=O)N[C@@H]([C@@H](C)CC)C(=O)N(C)CC(=O)N[C@@H](Cc3cccc(OCC(=O)O)c3)C(=O)N[C@@H](Cc3ccc(C(=O)O)cc3)C(=O)N[C@@H](CCCNC(=N)N)C(=O)N(C)[C@@H](Cc3ccccc3)C(=O)N[C@@H](CC(C)C)C(=O)N(C)[C@@H](C)C(=O)N2C)c1 [Myostatin_99_v113] ({CH2CO}-[Gly(N(CH2)3COOH)]A[Bip]Y[NMeY]I[Sar][Phe(3-OCH2COOH)][Phe(4-COOH)]R[NMeF]L[NMeA][X14][dC]-OH; thioether N-15)
4 | 46 | 70 | 0 | 0 | CC[C@H](C)[C@@H]1NC(=O)[C@H](Cc2cccc(C)c2)N(C)C(=O)[C@H](Cc2ccc(O)cc2)NC(=O)[C@H](Cc2ccc(-c3ccccc3)cc2)NC(=O)[C@H](C)NC(=O)CN(CCCC(=O)O)C(=O)CSC[C@H](C(=O)O)NC(=O)[C@H](Cc2ccccc2)N(C)C(=O)[C@H](C)N(C)C(=O)[C@H](CC(C)C)NC(=O)[C@H](Cc2ccccc2)N(C)C(=O)[C@H](CCCNC(=N)N)NC(=O)[C@H](Cc2ccc(C(=O)O)cc2)NC(=O)[C@H](Cc2cccc(OCC(=O)O)c2)NC(=O)CN(C)C1=O [Myostatin_99_v119] ({CH2CO}-[Gly(N(CH2)3COOH)]A[Bip]Y[NMePhe(3-Me)]I[Sar][Phe(3-OCH2COOH)][Phe(4-COOH)]R[NMeF]L[NMeA][NMeF][dC]-OH; thioether N-15)
5 | 28 | 68 | 0 | 0 | CC[C@H](C)[C@@H]1NC(=O)[C@H](Cc2ccccc2)N(C)C(=O)[C@H](Cc2ccc(O)cc2)NC(=O)[C@H](Cc2c[nH]c3ccccc23)NC(=O)[C@H](C)NC(=O)CN(CCCC(=O)O)C(=O)CSC[C@H](C(=O)O)NC(=O)[C@H](Cc2ccccc2)N(C)C(=O)[C@H](C)N(C)C(=O)[C@H](CC(C)C)NC(=O)[C@H](Cc2ccccc2)N(C)C(=O)[C@H](CCCNC(=N)N)NC(=O)[C@H](Cc2ccc(OCC(=O)O)cc2)NC(=O)[C@H](Cc2cccc(OC)c2)NC(=O)[C@H](C)N(C)C1=O [Myostatin_99_v126] ({CH2CO}-[Gly(N(CH2)3COOH)]AWY[NMeF]I[NMeA][Phe(3-OMe)]Y(Carboxymethyl)R[NMeF]L[NMeA][NMeF][dC]-OH; thioether N-15)
6 | 31 | 57 | 0 | 0 | CC[C@H](C)[C@@H]1NC(=O)[C@H](Cc2ccccc2)N(C)C(=O)[C@H](Cc2ccc(O)cc2)NC(=O)[C@H](Cc2c[nH]c3ncccc23)NC(=O)[C@H](C)NC(=O)CN(CCCC(=O)O)C(=O)CSC[C@H](C(=O)O)NC(=O)[C@H](Cc2ccccc2)N(C)C(=O)[C@H](C)N(C)C(=O)[C@H](CC(C)C)NC(=O)[C@H](Cc2ccccc2)N(C)C(=O)[C@H](CCCNC(=N)N)NC(=O)[C@H](Cc2ccc(OCC(=O)O)cc2)NC(=O)[C@H](Cc2cccc(OC)c2)NC(=O)[C@H](C)N(C)C1=O [Myostatin_99_v127] ({CH2CO}-[Gly(N(CH2)3COOH)]A[Trp(7-aza)]Y[NMeF]I[NMeA][Phe(3-OMe)]Y(Carboxymethyl)R[NMeF]L[NMeA][NMeF][dC]-OH; thioether N-15)
7 | 37 | 69 | 6 | 1 | CCCCC[C@@H]1NC(=O)[C@H](Cc2ccccc2)N(C)C(=O)[C@H](CCCNC(=N)N)NC(=O)[C@H](Cc2cccnc2)NC(=O)[C@H](Cc2cccc(OCC(=O)O)c2)NC(=O)CN(C)C(=O)[C@H]([C@@H](C)CC)NC(=O)[C@H](Cc2ccccc2)N(C)C(=O)[C@H](Cc2ccc(O)cc2)NC(=O)[C@H](Cc2c[nH]c3ccccc23)NC(=O)[C@H](C)NC(=O)[C@H](C)NC(=O)CSC[C@H](C(=O)O)NC(=O)[C@H](Cc2ccccc2)N(C)C(=O)[C@H](C)N(C)C1=O [Myostatin_99_v205] ({CH2CO}-AAWY[NMeF]I[Sar][Phe(3-OCH2COOH)][3Pal]R[NMeF][Ahp(2)][NMeA][NMeF][dC]-OH; thioether N-15)
8 | 88 | 97 | 0 | 0 | CCCCC[C@@H]1NC(=O)[C@H](Cc2ccccc2)N(C)C(=O)[C@H](CCCNC(=N)N)NC(=O)[C@H](Cc2ccc(C(=O)O)cc2)NC(=O)[C@H](Cc2cccc(OCC(=O)O)c2)NC(=O)CN(C)C(=O)[C@H]([C@@H](C)CC)NC(=O)[C@H](Cc2ccccc2)N(C)C(=O)[C@H](Cc2ccc(O)cc2)NC(=O)[C@H](Cc2c[nH]c3ccccc23)NC(=O)[C@H](C)NC(=O)[C@H](C)NC(=O)CSC[C@H](C(N)=O)NC(=O)[C@H](Cc2ccccc2)N(C)C(=O)[C@H](C)N(C)C1=O [Myostatin_99_v206] ({CH2CO}-AAWY[NMeF]I[Sar][Phe(3-OCH2COOH)][Phe(4-COOH)]R[NMeF][Ahp(2)][NMeA][NMeF][dC]-NH2; thioether N-15)
9 | 98 | 100 | 0 | 20 | CCCCCCC[C@@H]1NC(=O)[C@H](Cc2ccccc2)N(C)C(=O)[C@H](CCCNC(=N)N)NC(=O)[C@H](Cc2ccc(C(=O)O)cc2)NC(=O)[C@H](Cc2cccc(OCC(=O)O)c2)NC(=O)CN(C)C(=O)[C@H]([C@@H](C)CC)NC(=O)[C@H](Cc2ccccc2)N(C)C(=O)[C@H](Cc2ccc(O)cc2)NC(=O)[C@H](Cc2c[nH]c3cnccc23)NC(=O)[C@H](C)NC(=O)[C@H](C)NC(=O)CSC[C@H](C(=O)O)NC(=O)[C@H](Cc2ccccc2)N(C)C(=O)[C@H](C)N(C)C1=O [Myostatin_99_v208] ({CH2CO}-AA[Trp(6-aza)]Y[NMeF]I[Sar][Phe(3-OCH2COOH)][Phe(4-COOH)]R[NMeF][X1][NMeA][NMeF][dC]-OH; thioether N-15)
10 | 95 | 99 | 0 | 7 | CCCCCCC[C@@H]1NC(=O)[C@H](Cc2ccncc2)N(C)C(=O)[C@H](CCCNC(=N)N)NC(=O)[C@H](Cc2ccc(C(=O)O)cc2)NC(=O)[C@H](Cc2cccc(OCC(=O)O)c2)NC(=O)CN(C)C(=O)[C@H]([C@@H](C)CC)NC(=O)[C@H](Cc2ccccc2)N(C)C(=O)[C@H](Cc2ccc(O)cc2)NC(=O)[C@H](Cc2c[nH]c3ccccc23)NC(=O)[C@H](C)NC(=O)[C@H](C)NC(=O)CSC[C@H](C(=O)O)NC(=O)[C@H](Cc2ccccc2)N(C)C(=O)[C@H](C)N(C)C1=O [Myostatin_99_v210] ({CH2CO}-AAWY[NMeF]I[Sar][Phe(3-OCH2COOH)][Phe(4-COOH)]R[NMe4Pal][X1][NMeA][NMeF][dC]-OH; thioether N-15)
